Patent US20080269298A1, “Benzimidazol-1-YL-thiophene compounds for the treatment of cancer” (priority 2002, published 2008)

Tests used:
PLK1 kinase domain = target: T1, PLK1 kinase domain (Homo sapiens, UniProt P53350); assay: Assay for Inhibition of PLK1 (SPA enzyme activity); type: biochemical; conditions: 2 μM ATP, read-out: Ave pIC50 PLK Enzyme Inhibition (converted)
T1 construct: made in house; host or cells: baculovirus-infected T. ni insect cells
Experimental: All procedures were performed at 4° C. Cells were lysed in so mM HEPES, 200 mM NaCl, so mM imidazole, 5% glycerol; pH 7.5. The homogenate was centrifuged at 14K rpm in a SLA-1500 rotor for 1 hr and the supernatant filtered through a 1.2 micron filter. The supernatant was loaded onto a Nickel chelating Sepharose (Amersham Pharmacia) column and washed with lysis buffer. Protein was eluted using 20%, 30% and 100% buffer B steps where buffer B is 50 mM HEPES, 200 mM NaCl, 300 mM imidazole, 5% glycerol; pH 7.5. Fractions containing PLK were determined by SDS-PAGE. Fractions containing PLK were diluted five-fold with so mM HEPES, 1 mM DTT, 5% glycerol; pH 7.5, then loaded on an SP Sepharose (Amersham Pharmacia) column. After washing the column with so mM HEPES, 1 mM DTT, 5% glycerol; pH 7.5, PLK was step eluted with so mM HEPES, 1 mM DTT, 500 mM NaCl; 5% glycerol; pH 7.5. PLK was concentrated using a 10 kDa molecular weight cutoff membrane and then loaded onto a Superdex 200 gel filtration (Amersham Pharmacia) column equilibrated in 25 mM HEPES, 1 mM DTT, 500 mM NaCl, 5% glycerol; pH 7.5. Fractions containing PLK were determined by SDS-PAGE. PLK was pooled, aliquoted and stored at −80° C. Samples were quality controlled using mass spectrometry, N-terminal sequencing and amino acid analysis.
B. Enzyme activity+/−inhibitors was determined as follows:
Compounds were added to the plate (1 μl in […]). […] Reaction Mix B is prepared as follows at 4° C.: • Reaction Mix B (Enzyme Mix) • 25 mM HEPES, pH 7.2 • 15 mM MgCl2 • 0.15 mg/ml BSA • 2 mM DTT • 2-10 nM PLK1 kinase domain
Reaction Mix A (20 μl) is added per well. Reaction Mix B (20 μl) is added per well. Incubate 1.5 hrs. at RT. The enzymatic reaction is stopped with 175 μl of SPA/EDTA bead mix (29 mM EDTA, 2.5 mg/ml Streptavidin-coated SPA in Standard Dulbecco's PBS (without Mg^2+ and Ca^2+), 60 μM ATP). Plates are sealed spun (after a 1 hr incubation at RT) at 1,000×g for 7 min or settled overnight, then plates counted in Packard TopCount for 30 seconds/well.

[1] = tested on: lung (H460) tumor cell line; assay: Methylene Blue Growth Inhibition Assay, H460; type: cell-based; conditions: Homo sapiens, NCI-H460, 72 h; Cell Line H460, 3 days; read-out: MeB IC50
Experimental: (§1) Normal Human foreskin fibroblasts (HFF) and human colon (HCT116, RKO), lung (H460), prostate (PC3), and breast tumor (MCF7) cell lines were cultured in high glucose DMEM (Life Technologies) containing 10% fetal bovine serum (FBS) at 37° C. in a humidified 10% CO2, 90% air incubator. Cells were harvested using trypsin/EDTA, counted using a haemocytometer, and plated in 100 μl of the appropriate media, at the following densities, in a 96-well tissue culture plate (Falcon 3075): HFF 5,000 cells/well, HCT116 3,000 cells/well, RKO 2,500 cells/well, H460 2,000 cells/well, PC3 8,000 cells/well, MCF7 4,000 cells/well. The next day, compounds were diluted in DMEM containing 100 μg/ml gentamicin, at twice the final required concentration, from 10 mM stock solutions in DMSO. 100μ/well of these dilutions were added to the 100 μl of media currently on the cell plates. Medium containing 0.6% DMSO was added to control wells. Compounds diluted in DMEM were added to all cell lines. The final concentration of DMSO in all wells was 0.3%. Cells were incubated at 37° C., 10% CO2 for 3 days. Medium was removed by aspiration. Cell biomass was estimated by staining cells with […] per well methylene blue (Sigma M9140, 0.5% in 50:50 ethanol:water), and incubation at room temperature for at least 30 minutes. Stain was removed, and the plates rinsed under a gentle stream of water, and air-dried. To release stain from the cells 100 μl of solubilization solution was added (1% N-lauroyl sarcosine, Sodium salt, Sigma L5125, in PBS), and plates were shaken gently for about 30 minutes. Optical density at 620 nm was measured on a microplate reader. Percent inhibition of cell growth was calculated relative to vehicle treated control wells. Concentration of compound that inhibits 50% of cell growth (IC50) was interpolated using nonlinear regression (Levenberg-Marquardt) and the equation, y=Vmax*(1-(x/(K+x)))+Y2, where “K” was equal to the IC50. In Table 1, +=10−>30 uM; ++=1−10 uM: +++=<1 uM.

[2] = tested on: colon (HCT116) tumor cell line; assay: Methylene Blue Growth Inhibition Assay, HCT116; type: cell-based; conditions: Homo sapiens, HCT-116, 72 h; Cell Line HCT116, 3 days; read-out: MeB IC50
Experimental: as §1

[3] = tested on: Normal Human foreskin fibroblasts (HFF); assay: Methylene Blue Growth Inhibition Assay, HFF; type: cell-based; conditions: 72 h, Cell Line HFF, 3 days, read-out: MeB IC50
Experimental: as §1

[4] = tested on: breast tumor (MCF7) cell line; assay: Methylene Blue Growth Inhibition Assay, MCF7; type: cell-based; conditions: Homo sapiens, 72 h; Cell Line MCF7, 3 days; read-out: MeB IC50
Experimental: as §1

[5] = tested on: prostate (PC3) tumor cell line; assay: Methylene Blue Growth Inhibition Assay, PC3; type: cell-based; conditions: Homo sapiens, 72 h; Cell Line PC3, 3 days; read-out: MeB IC50
Experimental: as §1

[6] = tested on: colon (RKO) tumor cell line; assay: Methylene Blue Growth Inhibition Assay, RKO; type: cell-based; conditions: Homo sapiens, 72 h, 3 days, read-out: MeB IC50
Experimental: as §1

T1 sequence (P53350 21-346): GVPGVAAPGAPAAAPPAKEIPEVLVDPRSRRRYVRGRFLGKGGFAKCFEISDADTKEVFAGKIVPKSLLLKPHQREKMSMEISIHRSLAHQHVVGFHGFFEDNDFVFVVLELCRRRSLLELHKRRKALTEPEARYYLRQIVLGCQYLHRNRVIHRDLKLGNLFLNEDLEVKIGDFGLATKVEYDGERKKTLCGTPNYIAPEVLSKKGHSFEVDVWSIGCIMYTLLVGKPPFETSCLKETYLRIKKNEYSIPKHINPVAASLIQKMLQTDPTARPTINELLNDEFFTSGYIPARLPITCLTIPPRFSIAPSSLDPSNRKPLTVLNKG

IC50 (PLK1 kinase domain)	IC50 [1]	IC50 [2]	IC50 [4]	IC50 [5]	IC50 [6]	SMILES	IC50 [3]
< 0.1 µM	> 10 µM	> 10 µM	> 10 µM	> 10 µM	> 10 µM	NC(=O)c1sc(-n2cnc3ccccc32)cc1NS(=O)(=O)c1ccccc1 [Example 132, 5-(1H-Benzimidazol-1-yl)-3-[(phenylsulfonyl)amino]thiophene-2-carboxamide]	> 10 µM
< 0.1 µM	> 10 µM	> 10 µM	> 10 µM	> 10 µM	> 10 µM	COc1cc2ncn(-c3cc(OS(=O)(=O)c4ccccc4[N+](=O)[O-])c(C(N)=O)s3)c2cc1OC [Example 153, 2-(Aminocarbonyl)-5-(5,6-dimethoxy-1H-benzimidazol-1-yl)thien-3-yl 2-nitrobenzenesulfonate]	> 10 µM
	> 10 µM	> 10 µM	> 10 µM	> 10 µM	> 10 µM	COc1cc2ncn(-c3cc(OCCc4ccccc4)c(C(N)=O)s3)c2cc1OC [Example 114, 5-(5,6-Dimethoxy-1H-benzimidazol-1-yl)-3-(2-phenylethoxy)-thiophene-2-carboxamide]	> 10 µM
0.1 to 10 µM						COc1cc2ncn(-c3cc(OCc4ccccc4C(F)(F)F)c(C#N)s3)c2cc1OC [Example 146, 5-(5,6-Dimethoxy-1H-benzimidazol-1-yl)-1-{[2-(trifluoromethyl)benzyl]oxy}thiophene-2-carbonitrile]	
< 0.1 µM						Cc1ccccc1COc1cc(-n2cnc3cc(O)ccc32)sc1C(=O)O [Example 141, 5-(5-Hydroxy-1H-benzimidazol-1-yl)-3-[(2-methylbenzyl)oxy]-thiophene-2-carboxylic acid]	
	> 10 µM	> 10 µM	> 10 µM	> 10 µM	> 10 µM	COc1cc2ncn(-c3cc(OCc4ccccc4C(F)(F)F)c(-c4nnn[nH]4)s3)c2cc1OC [Example 147, 5,6-Dimethoxy-1-(5-(1H-tetraazol-5-yl)-4-{[2-(trifluoromethyl)-benzyl]oxy}thien-2-yl)-1H-benzimidazole]	> 10 µM
	< 1 µM	1 to 10 µM	< 1 µM	> 10 µM	< 1 µM	NC(=O)c1sc(-n2cnc3ccccc32)cc1OCc1ccccc1C(F)(F)F [Example 116, 5-(1H-Benzimidazol-1-yl)-3-{[2-(trifluoromethyl)benzyl]oxy}thiophene-2-carboxamide]	1 to 10 µM
0.1 to 10 µM						O=C(NO)c1sc(-n2cnc3ccccc32)cc1OCc1ccccc1 [Example 144, 5-(1H-Benzimidazol-1-yl)-3-(benzyloxy)-N-hydroxythiophene-2-carboxamide]	
	1 to 10 µM	1 to 10 µM	1 to 10 µM	> 10 µM	1 to 10 µM	COc1cc2ncn(-c3cc(OCCCc4ccccc4)c(C(N)=O)s3)c2cc1OC [Example 115, 5-(5,6-Dimethoxy-1H-benzimidazol-1-yl)-3-(3-phenylpropoxy)thiophene-2-carboxamide]	> 10 µM

More lines, now with the values behind:

SMILES	IC50 (PLK1 kinase domain)	IC50 [1]	IC50 [2]	IC50 [4]	IC50 [5]	IC50 [6]	IC50 [3]
CC(=O)c1sc(-n2cnc3ccc(Cl)cc32)cc1OCc1ccccc1C [Example 39, 1-{5-(6-Chloro-1H-benzimidazol-1-yl)-3-[(2-methylbenzyl)oxy]thien-2-yl}ethanone]	0.1 to 10 µM	> 10 µM	> 10 µM	> 10 µM	> 10 µM	> 10 µM	> 10 µM
O=C(O)c1sc(-n2cnc3cc(Cl)c(Cl)cc32)cc1OCc1ccsc1 [Example 79]	< 0.1 µM	> 10 µM	> 10 µM	> 10 µM	> 10 µM	> 10 µM	> 10 µM
O=C(O)c1sc(-n2cnc3cc(Cl)c(Cl)cc32)cc1OCc1ccoc1 [Example 77, 5-(5,6-Dichloro-1H-benzimidazol-1-yl)-3-(3-furylmethoxy)thiophene-2-carboxylic acid]	< 0.1 µM	> 10 µM	> 10 µM	> 10 µM	> 10 µM	> 10 µM	> 10 µM
O=C(O)c1sc(-n2cnc3ccc(Br)cc32)cc1OCc1ccccc1C(F)(F)F [Example 74, 5-(6-Bromo-1H-benzimidazol-1-yl)-3-{[2-(trifluoromethyl)-benzyl]oxy}thiophene-2-carboxylic acid]	< 0.1 µM	1 to 10 µM	> 10 µM	> 10 µM	> 10 µM	> 10 µM	> 10 µM
Cc1ccccc1COc1cc(-n2cnc3ccccc32)sc1C(N)=O [Example 4, 5-(1H-Benzimidazol-1-yl)-3-[(2-methylbenzyl)oxy]-2-thiophenecarboxamide]	< 0.1 µM						
NC(=O)c1sc(-n2cnc3ccccc32)cc1OCc1cccc(Cl)c1 [Example 15, 5-(1H-Benzimidazol-1-yl)-3-[(3-chlorobenzyl)oxy]-2-thiophenecarboxamide]	< 0.1 µM						
COc1cc2ncn(-c3cc(OCC4CCCCC4)c(C(N)=O)s3)c2cc1OC [Example 111, 3-(Cyclohexylmethoxy)-5-(5,6-dimethoxy-1H-benzimidazol-1-yl)thiophene-2-carboxamide]		1 to 10 µM	1 to 10 µM	1 to 10 µM	1 to 10 µM	1 to 10 µM	> 10 µM
COc1cc2ncn(-c3cc(OCc4ccccc4C(F)(F)F)c(C(=O)O)s3)c2cc1OC [Example 75]		> 10 µM	1 to 10 µM	> 10 µM	> 10 µM	> 10 µM	> 10 µM
NC(=O)c1sc(-n2cnc3cc(Cl)ccc32)cc1OCc1ccccc1 [Example 84, 3-(Benzyloxy)-5-(5-chloro-1H-benzimidazol-1-yl)thiophene-2-carboxamide]	< 0.1 µM						
Cc1cccc(COc2cc(-n3cnc4ccccc43)sc2C(N)=O)c1 [Example 13, 5-(1H-Benzimidazol-1-yl)-3-[(3-methylbenzyl)oxy]-2-thiophenecarboxamide]	< 0.1 µM						
COc1cccc(COc2cc(-n3cnc4ccccc43)sc2C(N)=O)c1 [Example 14, 5-(1H-Benzimidazol-1-yl)-3-[(3-methoxybenzyl)oxy]-2-thiophenecarboxamide]	< 0.1 µM						
